“And” between values parts separate entries of the source, which are not always exact repeats. Equal values may be shown once.

In general, IC50 refers to the concentration that gives 50% inhibition. Low values mean greater potency in that assay, high ones weaker potency in that assay.

The target of the assay is SARS-CoV-2 Main Protease (SARS-CoV-2) (UniProt P0DTD1).
As to `CN(C)C(C(=O)Nc1cncc2ccccc12)c1ccc(Cl)c(Cl)c1` (configuration not stated), the IC50 was found to be 4.27 µM.
To `COc1ccc(N(C(C)=O)c2cc(Cl)cc(CC(=O)Nc3cncc4ccccc34)c2)cc1N` belongs 2.71 µM; to `O=C(Cc1cc(Cl)cc(Nc2ccncc2I)c1)Nc1cncc2ccccc12`, 1.68 µM.
The figure for `O=C(Nc1cncc2ccccc12)C1CN(C(=O)c2ncco2)Cc2ccc(Cl)cc21` (configuration not stated) is 0.918 µM.
To `COC(=O)[C@H]1C[C@@H](NC(=O)C(c2cccnc2)N(C(=O)c2cocn2)c2ccc(C(C)(C)C)cc2)CN1C(=O)OC(C)(C)C` (stereo in doubt) belongs 5.32 µM; to `COc1ccc2nnn(CC(=O)N(Cc3ccccn3)c3ccc(C4CCNCC4)cc3)c2c1`, 38.8 µM.
As for `COC(=O)CN1Cc2ccc(Cl)cc2C(C(=O)Nc2cncc3ccccc23)C1` (configuration not stated), the half-maximal inhibitory concentration (IC50) turned out to be 1.55 µM.
To `O=C(Cc1cccc(Cl)c1)Nn1cnc2ccccc2c1=O` belongs 8.65 µM; to `CC(C)C[C@@H]1CN(C(=O)CCl)CCN1Cc1cccc(Cl)c1` (stereo in doubt), 0.784 µM.
`Cc1nccn1-c1ccc(Nc2cc(Cl)cc(CC(=O)Nc3cncc4ccccc34)c2)cc1`: the IC50 came out at 2.48 µM.
The figure for `O=C(Cc1cc(Cl)cc(Nc2cc(Cl)c(F)cc2F)c1)Nc1cncc2ccccc12` is 1.74 µM; for `O=C(NCCc1cccc(F)c1)C(c1cccnc1)N(C(=O)c1cocn1)C1CCN(c2ccccc2)C1` (configuration not stated) it is over 99.5 µM.
The figure for `CC(C)(C)c1ccc(N(C(=O)c2ccc(Cl)o2)C(C(=O)NCCc2cccc(F)c2)c2cccnc2)cc1` (configuration not stated) is 0.315 µM.
The figure for `CN(CC(=O)Nc1ccccc1Br)C(=O)CCl` is 5.9 µM.
The compound `O=C(Cc1cc(Cl)cc(NCc2ccc3c(c2)OCO3)c1)Nc1cncc2ccccc12` registered an IC50 of 2.52 µM.
Turning to `CN(C)c1ccc(N(Cc2ccn[nH]2)C(=O)Cn2nnc3ccccc32)cc1`, the IC50 turned out to be 15.9 µM.
The figure for `O=C(Cc1cc(Cl)ccc1Cl)Nc1cncc2ccccc12` is 1.02 µM.
To `O=C(NCCc1cccc(F)c1)C(c1cccnc1)N(C(=O)c1ccco1)c1ccc(-c2n[nH]c3c2COCC3)cc1` (configuration not stated) belongs 43 µM; to `O=C(NCc1ccc2[nH]c(=O)[nH]c2c1)Nc1ccc(F)c(F)c1`, over 99.5 µM; to `N#Cc1cc(CN2CCN(C(=O)CCl)CC2)c2ccccc2c1`, 4.61 µM.
The figure for `O=C(Cc1cc(Cl)cc(Oc2cccnc2)c1)Nc1cncc2ccccc12` is 1.14 µM and 1.57 µM and 1.17 µM; for `CCOC(=O)Cn1cc(C(=O)N(c2ccc(C(C)(C)C)cc2)C(C(=O)NCCc2cccc(F)c2)c2cccnc2)nn1` (configuration not stated) it is 44 µM; for `N#CC1(CS(=O)(=O)N2Cc3ccc(Cl)cc3C3(CCN(c4cncc5c4CCCC5)C3=O)C2)CC1` (configuration not stated) it is 0.515 µM.
Turning to `CN1CCN(c2ccccc2Nc2cc(Cl)cc(CC(=O)Nc3cncc4ccccc34)c2)CC1`, the IC50 turned out to be 2.09 µM.
The figure for `O=C1CC(NC(=O)Cc2cccc(Cl)c2)C(=O)N1` (configuration not stated) is over 99.5 µM; for `CN(c1cc(Cl)cc(CC(=O)Nc2cncc3ccccc23)c1)C(c1ccccc1)c1ccccc1` it is 2.34 µM; for `CN(C)CCCOc1ccc2cncc(N3CCC4(CN(S(=O)(=O)CC5(C#N)CC5)Cc5ccc(Cl)cc54)C3=O)c2c1` (configuration not stated) it is 0.149 µM.
The figure for `COc1ccc(N(C(=O)c2ccco2)C(C(=O)NCCc2cccc(F)c2)c2cccnc2)cc1` (configuration not stated) is 30.5 µM; for `CC(C)(C)c1ccc(N(C(=O)c2cocn2)C(C(=O)NCCc2cccc(F)c2)c2cnc(N3CCOCC3)nc2)cc1` (configuration not stated) it is over 99.5 µM; for `Cc1ccncc1NC(=O)CN1CCCCC1` it is over 99.5 µM.
The compound `CC1(C(=O)Nc2cncc3c2CCCC3)CNS(=O)(=O)c2ccc(Cl)cc21` (configuration not stated) registered an IC50 of over 99.5 µM.
To `CC(C)(C)c1ccc(N(C(=O)c2cncs2)C(C(=O)NCCc2cccc(F)c2)c2cccnc2)cc1` (configuration not stated) belongs 24.2 µM.
The figure for `O=C(Nc1cncc2ccccc12)[C@H]1CCNc2cc(Cl)c(Cl)cc21` (stereo in doubt) is over 99.5 µM; for `Cc1cccc(NC(=O)[C@@H](c2ccccc2)N2Cc3ccccc3C2=O)n1` (stereo in doubt) it is over 99.5 µM; for `CNC(=O)CN1CC(C)(C(=O)Nc2cncc3cc(F)ccc23)c2cc(Cl)ccc2S1(=O)=O` (configuration not stated) it is 0.248 µM.
To `CC(NC(=O)CN)(C(=O)Nc1cncc2ccccc12)c1ccc(Cl)c(Cl)c1` (configuration not stated) belongs 6.21 µM and 1.84 µM; to `N#CC1(CS(=O)(=O)N2Cc3ccc(Cl)cc3C(C(=O)Nc3cncc4cc(NS(=O)(=O)C5CC5)ccc34)C2)CC1` (configuration not stated), under 0.05 µM; to `O=C(Nc1ccncc1)[C@@H](c1ccccc1)N1Cc2ccccc2C1=O` (stereo in doubt), over 99.5 µM.
In turn, `O=C(COCC1(C(=O)Nc2cncc3ccccc23)CCOc2ccc(Cl)cc21)Nc1ncc[nH]1` (configuration not stated) showed an IC50 of 1.99 µM.
To `O=C(Nc1cncc2ccccc12)C1COc2ccc(Cl)cc21` (configuration not stated) belongs 0.764 µM; to `N#CC1(CS(=O)(=O)N2Cc3ccc(Cl)cc3[C@@H](C(=O)Nc3cncc4ccccc34)C2)CNC1` (stereo in doubt), 1.62 µM.
Consider `O=C(Cc1cccc(Cl)c1)NC1CCCNC1=O` (configuration not stated), for which the IC50 is over 99.5 µM.
The figure for `CC(C)=CCC/C(C)=C/CC/C(C)=C/CC/C(C)=C/Cc1cc(O)cc2c1OC(=O)C2=C(C)C` is over 99.5 µM; for `O=C(Cc1cc(Cl)cc(OC(F)(F)F)c1)Nc1cncc2ccccc12` it is 1.55 µM; for `O=C(Cc1cc(Cl)cc(Nc2ccn([C@H]3C[C@H](O)[C@@H](CO)O3)c(=O)n2)c1)Nc1cncc2ccccc12` (stereo in doubt) it is 1.84 µM.
In turn, `O=C(CC1(C(=O)Nc2cncc3ccccc23)CCOc2ccc(Cl)cc21)N1CCC2C1CCCN2CCO` (configuration not stated) showed an IC50 of 4.66 µM.
To `O=C1NCC(C(=O)Nc2cnn3c2CCCC3)c2cc(Cl)ccc21` (configuration not stated) belongs 30.5 µM.
The figure for `COc1ccc(N2CCN(C(=O)c3cc(=O)[nH]c4ccccc34)CC2)cc1` is 14.7 µM.
To `CC(C)CCN1C(=O)C(=O)c2cc(Br)ccc21` belongs over 99.5 µM; to `Cc1ccncc1NC(=O)Cc1cc(Cl)cc(NCC(C)(C)C#N)c1`, 36.5 µM; to `CN(C)C(=O)CN1Cc2ccc(Cl)cc2C(C(=O)Nc2cncc3ccccc23)C1` (configuration not stated), 0.896 µM.
As to `C[C@@H]1C[C@H](C(=O)Nc2cncc3ccccc23)c2cc(Cl)ccc2O1` (stereo in doubt), the IC50 turned out to be 0.679 µM.
The figure for `O=C(Cc1cc(Cl)cc(Nc2cccc(I)c2)c1)Nc1cncc2ccccc12` is 2.22 µM.
`O=C1CC(C(=O)Nc2cncc3ccccc23)c2cc(Br)ccc2N1` (configuration not stated): the IC50 amounted to 1.12 µM.
The figure for `CCC1(C(=O)Nc2cncc3ccccc23)CNC(=O)c2ccc(Cl)cc21` (configuration not stated) is 1.18 µM; for `NCc1cn(CC(=O)N(Cc2ccsc2)c2ccc(-c3ccccc3)cc2)nn1` it is over 99.5 µM; for `Cc1ccncc1NC(=O)CCc1cccc(F)c1` it is 58.5 µM.
The figure for `CC(C)(C)c1ccc(N(C(=O)c2cocn2)C(C(=O)NCC(=O)OCc2ccccc2)c2cccnc2)cc1` (configuration not stated) is 9.92 µM.
To `CC1CC(CCN(C(=O)c2ccco2)C(C(=O)NCCc2cccc(F)c2)c2cccnc2)CC(C)(C)C1` (configuration not stated) belongs over 99.5 µM; to `Cc1nc2sccn2c1CN(C)C(=O)c1cn2ccccc2n1`, over 99.5 µM; to `COc1ccccc1CN(C(=O)c1cocn1)C(C(=O)NCCc1cccc(F)c1)c1cccnc1` (configuration not stated), over 99.5 µM.
The compound `O=C(Nc1cncc2ccncc12)[C@H]1CCOc2cc(F)c(Cl)cc21` (stereo in doubt) came in with an IC50 of over 99.5 µM.

(Values after the COVID Moonshot data (paper PMC7615835).)
